Results taken from PubChem BioAssay AID463204 (Broad Institute, 2010).
Active and inactive are the calls of the source.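 How the source made its calls: active means AC50 no more than ten times the top concentration tested, that is within one log above it; inconclusive means flat curve fit with activity between 30% and 70%, or invalid poor fit; inactive means AC50 beyond ten times the top tested dose.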

Tested on: S. cerevisiae Mot1-301 ts growth rescue, BacTiter-Glo ATP luminescence
Experiment: restored Mot1-301 yeast growth at 38.5C – whole organism, S. cerevisiae, Mot1-301 ts mutant, luminescence, dose retest, SUMOylation pathway inhibitor project, confirmation (AID 463204);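 further: growth at restrictive 38.5 degrees C of Mot1-301 OY566 strain; actives raise luminescence by restoring growth of the ts mutant at high temperature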

SMILES | AC50
CCCCn1c(=O)[nH]c(=O)c2c1nc(COc1ccc(C#N)cc1)n2CCC | > 42 µM (inactive)
CCCc1nnc(NC(=O)c2cn(CC)c3cc(N4CCN(C)CC4)c(F)cc3c2=O)s1 | > 21 µM (inactive)
CCCOC(=O)c1c(NC(=O)/C=C/c2cnn(C)c2C)sc(C(=O)OC)c1C | > 42 µM (inactive)
COc1ccc(C2=C(N)c3ccccc3C2=O)cc1 | > 42 µM (inactive)
CCOC(=O)c1sc2ncn(C(CC)C(=O)OCC)c(=O)c2c1C (stereo unspecified) | > 42 µM (inactive)
Cn1c(SCC(=O)Nc2nnc(-c3ccccc3)o2)nnc1C1CC1 | > 42 µM (inactive)
Cc1ccccc1-c1nnnn1C1CCS(=O)(=O)C1 (stereo unspecified) | > 42 µM (inactive)
O=S(=O)(c1cccc(-c2nnco2)c1)N1CCCC1 | > 42 µM (inactive)
O=S(=O)(c1ccc(C2CCCCC2)cc1)N1CCCC1 | > 42 µM (inactive)
O=C1COc2ccc(C(=O)COC(=O)c3ncc(Cl)c(Cl)c3Cl)cc2N1 | > 42 µM (inactive)
COc1ccc(OCC(O)CN2C(=O)NC(C)(C)C2=O)cc1 (stereo unspecified) | > 42 µM (inactive)
CCn1c(SCC(=O)Nc2ccc(NC(=O)c3ccco3)cc2)nnc1-c1cccs1 | > 42 µM (inactive)
COc1ccccc1NC(=O)CN(c1ccc(C)cc1)S(=O)(=O)c1c(C)n[nH]c1C | > 42 µM (inactive)
CC(c1ccccn1)N(CCN(C)C)C(=S)Nc1cccc(F)c1 (stereo unspecified) | > 42 µM (inactive)
CC(CN1CCCCCC1)C(=O)NN (stereo unspecified) | > 42 µM (inactive)
O=C(COc1ccc(-n2cnnn2)cc1)NCCc1ccc(F)cc1 | > 42 µM (inactive)
Cc1nc2sc(C(c3ccco3)N3CCOCC3)c(O)n2n1 (stereo unspecified) | > 42 µM (inactive)
CC1CCN(CCCCOc2cccc(C(C)C)c2)CC1 | > 42 µM (inactive)
Oc1c(Br)cc(Cl)cc1C=Nc1ccccc1Br | 4.15 µM
COC(=O)c1ccc(CSc2nnnn2-c2ccccc2)o1 | > 42 µM (inactive)
CN(C)c1oc(-c2ccccc2Cl)nc1S(=O)(=O)c1ccccc1 | > 42 µM (inactive)
COc1ccc(-c2nnc(SCC(C)C)o2)cc1 | 31.1 µM
COc1ccc2c(c1)[C@H]1[C@H](CO2)[C@H](c2ccccc2)[C@]2(C)C(=O)Nc3ccc(Br)cc3C(=O)N12 | 1.17 µM
FC(F)(F)c1nc2ccccc2n2c(-c3ccc(Cl)cc3Cl)nnc12 | > 42 µM (inactive)
Cc1nc2ccc(S(=O)(=O)NC(CC(C)C)C(=O)O)cc2s1 (stereo unspecified) | > 42 µM (inactive)
O=C(CNC(=O)c1ccco1)OCC(=O)c1cccc2ccccc12 | > 42 µM (inactive)

SMILES | AC50
Cc1cc(N2CCN(C)CC2)nc2ccc(NC(=S)N3CCC4(CC3)OCCO4)cc12 | > 42 µM (inactive)
Cc1cc(-c2ccc(C(C)C)c(S(=O)(=O)N3CC(=O)Nc4ccccc43)c2)on1 | > 42 µM (inactive)
COc1cc(NC(=S)N2CCN(C(=O)C3CCCO3)CC2)c(OC)cc1Cl (stereo unspecified) | > 42 µM (inactive)
Clc1ccc(N=c2ssnc2Cl)nc1 | 0.78 µM
CCCCn1c(/N=C/c2ccc3c(c2)OCO3)nc2ccccc21 | > 42 µM (inactive)
CC(=O)NCc1c(Cl)cccc1-n1cccc1 | > 42 µM (inactive)
CCn1c(SCc2nc3ccccc3[nH]2)nnc1-c1cccnc1 | > 42 µM (inactive)
O=C1CC(c2ccccc2)c2ccc(O)cc2O1 (stereo unspecified) | > 42 µM (inactive)
CC1(C)Cc2nc3sc4c(OCc5ccccc5)ncnc4c3cc2CO1 | > 42 µM (inactive)
CN1C(C(=O)Nc2ccccn2)=C(O)c2sccc2S1(=O)=O | > 42 µM (inactive)
CCCCn1c(N)c(N(CC(C)C)C(=O)CSCC(=O)Nc2cccc(C)c2)c(=O)[nH]c1=O | > 42 µM (inactive)
O=C(C1CCN(C2CC(=O)N(c3cccc(Cl)c3)C2=O)CC1)N1CCCC1 (stereo unspecified) | 7.84 µM
CC(=O)N1CC(=O)Nc2ccc(Cl)cc2C1c1ccccc1 (stereo unspecified) | > 42 µM (inactive)
COc1ccc2[nH]cc(CCNS(=O)(=O)c3ccc(C)cc3)c2c1 | > 42 µM (inactive)
COc1cc(/C=N/NC(=O)c2ccncc2)ccc1OC(=O)c1ccco1 | > 42 µM (inactive)
CCC(=O)N1CCc2cc(S(=O)(=O)CCC(=O)Nc3cccc(C)n3)ccc21 | > 42 µM (inactive)
CCC1(c2ccccc2)NC(=O)N(CC(=O)N(C)CC(=O)Nc2ccc(F)c(F)c2F)C1=O (stereo unspecified) | > 42 µM (inactive)
OCC1(Cc2cccc(Cl)c2)CCCN(Cc2ccc(F)c(F)c2)C1 (stereo unspecified) | > 42 µM (inactive)
O=C(Nc1ccc(Cl)cc1)C1=Cc2ccccc2OC1 | 40.9 µM
COc1ccc(-c2[nH]nc3c2C(c2ccncc2)C(C#N)=C(N)O3)cc1 (stereo unspecified) | > 42 µM (inactive)
CC1CCN(C(=O)c2[nH]cnc2C(=O)NCC(=O)OCc2ccccc2)CC1 | > 42 µM (inactive)
Cn1cnnc1-c1cccc(NS(=O)(=O)c2ccc(N3CCCC3=O)cc2)c1 | > 42 µM (inactive)
O=S(=O)(NCc1ccc(Cl)cc1)c1cnc[nH]1 | > 42 µM (inactive)
CC1CCN(CCNC(=O)C2CCCN(S(=O)(=O)c3cccc4nsnc34)C2)CC1 (stereo unspecified) | > 42 µM (inactive)
Cc1ccc(-n2c(-c3ccco3)nc3c(cnn3-c3ccc(C)cc3)c2=O)cc1 | > 42 µM (inactive)
Cc1cc(S(=O)(=O)N2CCCC(N3CCOCC3)C2)c(C)cc1Cl (stereo unspecified) | > 42 µM (inactive)

SMILES | AC50
Cc1cc(-c2ccccc2)n(-c2ccc(C(=O)NC(C)C)cc2)n1 | > 42 µM (inactive)
COc1ccc(CCNC(=O)CC2C(=O)NCCN2CC(C)(C)C)cc1 (stereo unspecified) | > 42 µM (inactive)
COc1ccc(/C=N/NC(=O)c2c(C)nc3ccccn23)cc1[N+](=O)[O-] | > 42 µM (inactive)
COc1ccc2c(c1)c(CC(=O)OCC(N)=O)c(C)n2C(=O)c1ccc(Cl)cc1 | > 42 µM (inactive)
CC(C)Sc1ccc(C(=O)Nc2ccc(F)cc2F)cn1 | > 42 µM (inactive)
COc1ccc(C2CC(c3cccs3)=NN2C(=O)c2ccccc2)cc1OC (stereo unspecified) | > 42 µM (inactive)
C(=N\Nc1ccc2nncn2n1)/c1ccccn1 | > 42 µM (inactive)
O=[N+]([O-])c1c(NCCCO)cc(Sc2nc3ccccc3s2)c2nonc12 | 40 µM
CCOc1ccccc1C(=O)N(Cc1cccs1)C1CCS(=O)(=O)C1 (stereo unspecified) | > 42 µM (inactive)
N#CC(CC(=O)c1ccc(F)cc1)c1ccc2c(c1)OCO2 (stereo unspecified) | 40.2 µM
Cc1nnc(C)n1/N=C/c1cc2ccccc2nc1Cl | > 42 µM (inactive)
COC(=O)C1CN(C(=O)C(C)Oc2ccc(F)cc2)c2ccccc2O1 (stereo unspecified) | > 42 µM (inactive)
c1ccc(CCCc2nc(-c3cccnc3)no2)cc1 | > 42 µM (inactive)
Fc1ccccc1-n1cc(-c2ccccc2)[nH]c1=S | > 42 µM (inactive)
C=CCN1C(=O)/C(=C\c2ccc(C)cc2)N=C1SCC(=O)NCCC | > 42 µM (inactive)
Cc1cc(C)c2cc(C)c3nnc(SCC(=O)NCc4ccc5c(c4)OCO5)n3c2c1 | > 42 µM (inactive)
Cc1cc(C)cc(C(=O)Oc2cc(C)[nH]c(=O)c2[N+](=O)[O-])c1 | > 42 µM (inactive)
Cc1ccc(S(=O)(=O)N2c3ccc(S(N)(=O)=O)cc3CC2C)cc1 (stereo unspecified) | > 42 µM (inactive)
O=C(CCc1ccccc1)NNC(=S)Nc1ccc(F)cc1 | > 42 µM (inactive)
CCC(C)(C)n1nnnc1C(c1ccc(OC)c(OC)c1)N1CCN(c2cccc(OC)c2)CC1 (stereo unspecified) | > 42 µM (inactive)
CC(C)C(O)(C(=O)NNc1ccccc1)C(C)C | > 42 µM (inactive)
COc1ccc(-c2nc(NC(=O)CCNC(=O)c3ccco3)sc2C)cc1 | > 42 µM (inactive)
S=C(NCCc1c[nH]c2ccccc12)NC1CC1 | > 42 µM (inactive)
COc1ccc(-n2c(SCC(=O)NCC3CCCO3)nc3c(c2=O)SCC3)cc1OC (stereo unspecified) | > 42 µM (inactive)
CCN(C(=O)COC(=O)c1cc([N+](=O)[O-])ccc1N1CCOCC1)C1CCCCC1 | > 42 µM (inactive)
O=C(c1cc(N2C(=O)C3C4CCC(C4)C3C2=O)ccc1Cl)N1CCN(c2ccccc2)CC1 (stereo unspecified) | > 42 µM (inactive)

SMILES | AC50
COc1ccccc1NC(=O)Nc1ccc(Cl)c(S(=O)(=O)Nc2ccccc2OC)c1 | > 42 µM (inactive)
O=C(COc1cccc2cccnc12)N1CCc2ccccc21 | > 42 µM (inactive)
CCOc1ccc(Br)cc1S(=O)(=O)N1CCC(C(N)=O)CC1 | > 42 µM (inactive)
Cc1ccccc1Cn1cc(NC(=O)c2cc3nc(-c4ccco4)cc(C(F)(F)F)n3n2)cn1 | > 42 µM (inactive)
CC(N=C(NC#N)Nc1ccncc1)C(C)(C)C (stereo unspecified) | > 42 µM (inactive)
Cc1ccc(-c2cc(C(=O)O)c3ccccc3n2)s1 | > 42 µM (inactive)
CC1CCCC(C)N1/N=C/c1cc(Br)cc(Br)c1O (stereo unspecified) | 12.5 µM
CCOC(=O)c1oc2cc(OC(C)=O)ccc2c(=O)c1-c1ccc(OC)c(OC)c1 | > 42 µM (inactive)
CS(=O)(=O)N(CCc1ccccc1)CC(=O)NCc1cccnc1 | > 42 µM (inactive)
Cc1ccnc(NC(=O)CC(c2ccccc2)c2ccccc2)n1 | 29.8 µM
CCOc1ccc(C)cc1S(=O)(=O)n1nc(C)cc1C | > 42 µM (inactive)
CC(C)[C@H](NC(=O)C1(c2ccccc2)CCN(C(=O)OC(C)(C)C)CC1)C(=O)O | > 42 µM (inactive)
CN1c2ccccc2-c2nc3ccccc3n2C1c1ccncc1 (stereo unspecified) | > 42 µM (inactive)
Cc1ccccc1Nc1cc(=O)oc2ccccc12 | > 42 µM (inactive)
C/C(=N/OCO/N=C(\C)c1ccccc1)c1ccccc1 | > 42 µM (inactive)
Cc1cc(/C=C2\C(=O)NC(=O)N(c3ccccc3F)C2=O)c(C)n1-c1cc(C(=O)O)cc(C(=O)O)c1 | > 42 µM (inactive)
C/C(=N\N=C(c1ccccc1)c1ccccc1)c1ccco1 | > 42 µM (inactive)
CCOc1ccc(NC(=O)CC2C(=O)N(c3ccccc3)C(=S)N2Cc2ccccn2)cc1 (stereo unspecified) | > 42 µM (inactive)
O=C(O)c1ccc(CNC(=O)c2ccccc2NC(=O)c2ccc([N+](=O)[O-])cc2)cc1 | > 42 µM (inactive)
COc1ccc(-c2cc(C#N)nc(N3CCN(c4ccccc4)CC3)n2)cc1 | > 42 µM (inactive)
COc1ccc(Nc2oc(-c3cccs3)nc2C#N)cc1 | > 42 µM (inactive)
Cc1ccnc(NC(=O)c2ccc(Br)s2)c1 | > 42 µM (inactive)
CCCOc1ccc(N2C(=O)CC(N3CCC(C(=O)OCC)CC3)C2=O)cc1 (stereo unspecified) | 13.1 µM
